Key:
[1] = system: HT-29 cells; assay: Antiproliferation; conditions: for antiproliferation potency improvement over comparator: HT-29, 3 vs 14, 24 vs 3, 25 vs 22, 26 vs 3, 27 vs 23; for GI50: Homo sapiens, HT-29, 72 h, read-out: HT-29 GI50; for antiproliferation potency compared to compound 28: HT-29 cells
[2] = system: MEK1/2; assay: MEK1/2 protein levels in cells by Western blot; conditions: HT-29 cells, 0.3, 1 and 3 μM, 24 h
[3] = In vivo mouse PK study, single IP injection; parameters: species or system male Swiss Albino mice; conditions: mice, single IP 50 mg/kg; no clinical signs or adverse effects observed

Cc1ncsc1-c1ccc([C@H](C)NC(=O)[C@@H]2C[C@@H](O)CN2C(=O)[C@@H](NC(=O)CCCCCCCCCCNCCCONC(=O)c2ccc(F)c(F)c2Nc2ccc(I)cc2F)C(C)(C)C)cc1 [Compound 3]
antiproliferation potency improvement over comparator [1]: 3 fold

Cc1ncsc1-c1ccc(CNC(=O)[C@@H]2C[C@@H](O)CN2C(=O)[C@@H](NC(=O)CCCCCCCNCCCONC(=O)c2ccc(F)c(F)c2Nc2ccc(I)cc2F)C(C)(C)C)cc1 [Compound 11, (2S,4R)-1-((S)-17-(tert-Butyl)-1-(3,4-difluoro-2-((2-fluoro-4-iodophenyl)amino)phenyl)-1,15-dioxo-3-oxa-2,7,16-triazaoctadecan-18-oyl)-4-hydroxy-N-(4-(4-methylthiazol-5-yl)benzyl)pyrrolidine-2-carboxamide]
MEK1/2 degradation (Western blot, words) [2]: effectively degraded MEK1 and MEK2 proteins

Cc1ncsc1-c1ccc(CNC(=O)[C@@H]2C[C@@H](O)CN2C(=O)[C@@H](NC(=O)CCCCCCCCCNCCCONC(=O)c2ccc(F)c(F)c2Nc2ccc(I)cc2F)C(C)(C)C)cc1 [Compound 13, (2S,4R)-1-((S)-19-(tert-Butyl)-1-(3,4-difluoro-2-((2-fluoro-4-iodophenyl)amino)phenyl)-1,17-dioxo-3-oxa-2,7,18-triazaicosan-20-oyl)-4-hydroxy-N-(4-(4-methylthiazol-5-yl)benzyl)pyrrolidine-2-carboxamide]
MEK1/2 degradation (Western blot, words) [2]: effectively degraded MEK1 and MEK2 proteins

Cc1ncsc1-c1ccc([C@H](C)NC(=O)[C@@H]2C[C@@H](O)CN2C(=O)[C@@H](NC(=O)CCCCCCCCCCN(C)CCCONC(=O)c2ccc(F)c(F)c2Nc2ccc(I)cc2F)C(C)(C)C)cc1 [Compound 24, (2S,4R)-1-((S)-20-(tert-Butyl)-1-(3,4-difluoro-2-((2-fluoro-4-iodophenyl)amino)phenyl)-7-methyl-1,18-dioxo-3-oxa-2,7,19-triazahenicosan-21-oyl)-4-hydroxy-N-((S)-1-(4-(4-methylthiazol-5-yl)phenyl)ethyl)pyrrolidine-2-carboxamide]
tolerability [3]: very well tolerated

Cc1ncsc1-c1ccc([C@H](C)NC(=O)[C@@H]2C[C@@H](O)CN2C(=O)[C@@H](NC(=O)CCCCCCCCCNCCCCONC(=O)c2ccc(F)c(F)c2Nc2ccc(I)cc2F)C(C)(C)C)cc1 [Compound 25, (2S,4R)-1-((S)-20-(tert-Butyl)-1-(3,4-difluoro-2-((2-fluoro-4-iodophenyl)amino)phenyl)-1,18-dioxo-3-oxa-2,8,19-triazahenicosan-21-oyl)-4-hydroxy-N-((S)-1-(4-(4-methylthiazol-5-yl)phenyl)ethyl)pyrrolidine-2-carboxamide]
antiproliferation potency improvement over comparator [1]: about 4 fold

Cc1ncsc1-c1ccc([C@H](C)NC(=O)[C@@H]2C[C@@H](O)CN2C(=O)[C@@H](NC(=O)CCCCCCCCCCNCCCCONC(=O)c2ccc(F)c(F)c2Nc2ccc(I)cc2F)C(C)(C)C)cc1 [Compound 26, (2S,4R)-1-((S)-21-(tert-Butyl)-1-(3,4-difluoro-2-((2-fluoro-4-iodophenyl)amino)phenyl)-1,19-dioxo-3-oxa-2,8,20-triazadocosan-22-oyl)-4-hydroxy-N-((S)-1-(4-(4-methylthiazol-5-yl)phenyl)ethyl)pyrrolidine-2-carboxamide]
antiproliferation potency improvement over comparator [1]: ~3 fold

O=C1CCC(N2C(=O)c3cccc(NCCNCCCONC(=O)c4ccc(F)c(F)c4Nc4ccc(I)cc4F)c3C2=O)C(=O)N1 (centres unmarked) [Compound 28, N-(3-((2-((2-(2,6-Dioxopiperidin-3-yl)-1,3-dioxoisoindolin-4-yl)-amino)ethyl)amino)propoxy)-3,4-difluoro-2-((2-fluoro-4-iodophenyl)amino)benzamide]
GI50 [1]: 300 to 500 nM | MEK1/2 degradation (Western blot, words) [2]: did not show obvious MEK1/2 degradation

O=C1CCC(N2C(=O)c3cccc(NCCCNCCCONC(=O)c4ccc(F)c(F)c4Nc4ccc(I)cc4F)c3C2=O)C(=O)N1 (centres unmarked) [Compound 29, N-(3-((3-((2-(2,6-Dioxopiperidin-3-yl)-1,3-dioxoisoindolin-4-yl)-amino)propyl)amino)propoxy)-3,4-difluoro-2-((2-fluoro-4-iodophenyl)amino)benzamide]
antiproliferation potency compared to compound 28 [1]: did not improve the antiproliferation potency

O=C1CCC(N2C(=O)c3cccc(NCCCCNCCCONC(=O)c4ccc(F)c(F)c4Nc4ccc(I)cc4F)c3C2=O)C(=O)N1 (centres unmarked) [Compound 30, N-(3-((4-((2-(2,6-Dioxopiperidin-3-yl)-1,3-dioxoisoindolin-4-yl)-amino)butyl)amino)propoxy)-3,4-difluoro-2-((2-fluoro-4-iodophenyl)amino)benzamide]
antiproliferation potency compared to compound 28 [1]: did not improve the antiproliferation potency

O=C1CCC(N2C(=O)c3cccc(NCCCCCNCCCONC(=O)c4ccc(F)c(F)c4Nc4ccc(I)cc4F)c3C2=O)C(=O)N1 (centres unmarked) [Compound 31, N-(3-((5-((2-(2,6-Dioxopiperidin-3-yl)-1,3-dioxoisoindolin-4-yl)-amino)pentyl)amino)propoxy)-3,4-difluoro-2-((2-fluoro-4-iodophenyl)amino)benzamide]
antiproliferation potency compared to compound 28 [1]: did not improve the antiproliferation potency

O=C1CCC(N2C(=O)c3cccc(NCCCCCCNCCCONC(=O)c4ccc(F)c(F)c4Nc4ccc(I)cc4F)c3C2=O)C(=O)N1 (centres unmarked) [Compound 32, N-(3-((6-((2-(2,6-Dioxopiperidin-3-yl)-1,3-dioxoisoindolin-4-yl)-amino)hexyl)amino)propoxy)-3,4-difluoro-2-((2-fluoro-4-iodophenyl)amino)benzamide]
antiproliferation potency compared to compound 28 [1]: did not improve the antiproliferation potency

O=C1CCC(N2C(=O)c3cccc(NCCCCCCCNCCCONC(=O)c4ccc(F)c(F)c4Nc4ccc(I)cc4F)c3C2=O)C(=O)N1 (centres unmarked) [Compound 33, N-(3-((7-((2-(2,6-Dioxopiperidin-3-yl)-1,3-dioxoisoindolin-4-yl)-amino)heptyl)amino)propoxy)-3,4-difluoro-2-((2-fluoro-4-iodophenyl)amino)benzamide]
antiproliferation potency compared to compound 28 [1]: did not improve the antiproliferation potency

O=C1CCC(N2C(=O)c3cccc(NCCCCCCCCNCCCONC(=O)c4ccc(F)c(F)c4Nc4ccc(I)cc4F)c3C2=O)C(=O)N1 (centres unmarked) [Compound 34, N-(3-((8-((2-(2,6-Dioxopiperidin-3-yl)-1,3-dioxoisoindolin-4-yl)-amino)octyl)amino)propoxy)-3,4-difluoro-2-((2-fluoro-4-iodophenyl)amino)benzamide]
antiproliferation potency compared to compound 28 [1]: did not improve the antiproliferation potency

O=C1CCC(N2C(=O)c3ccc(NCCCNCCCONC(=O)c4ccc(F)c(F)c4Nc4ccc(I)cc4F)cc3C2=O)C(=O)N1 (centres unmarked) [Compound 40, N-(3-((3-((2-(2,6-Dioxopiperidin-3-yl)-1,3-dioxoisoindolin-5-yl)amino)propyl)amino)propoxy)-3,4-difluoro-2-((2-fluoro-4-iodophenyl)amino)benzamide]
GI50 [1]: 300 to 500 nM | MEK1/2 degradation (Western blot, words) [2]: did not show obvious MEK1/2 degradation

O=C1CCC(N2C(=O)c3ccc(NCCCCCNCCCONC(=O)c4ccc(F)c(F)c4Nc4ccc(I)cc4F)cc3C2=O)C(=O)N1 (centres unmarked) [Compound 42, N-(3-((5-((2-(2,6-Dioxopiperidin-3-yl)-1,3-dioxoisoindolin-5-yl)amino)pentyl)amino)propoxy)-3,4-difluoro-2-((2-fluoro-4-iodophenyl)amino)benzamide]
GI50 [1]: 300 to 500 nM | MEK1/2 degradation (Western blot, words) [2]: significant selectivity at degrading MEK2 over MEK1

O=C1CCC(N2C(=O)c3ccc(NCCCCCCCNCCCONC(=O)c4ccc(F)c(F)c4Nc4ccc(I)cc4F)cc3C2=O)C(=O)N1 (centres unmarked) [Compound 44, N-(3-((7-((2-(2,6-Dioxopiperidin-3-yl)-1,3-dioxoisoindolin-5-yl)amino)heptyl)amino)propoxy)-3,4-difluoro-2-((2-fluoro-4-iodophenyl)amino)benzamide]
GI50 [1]: 300 to 500 nM | MEK1/2 degradation (Western blot, words) [2]: significantly degraded both MEK1 and MEK2 proteins

O=C1CCC(N2C(=O)c3ccc(NCCCCCCCCNCCCONC(=O)c4ccc(F)c(F)c4Nc4ccc(I)cc4F)cc3C2=O)C(=O)N1 (centres unmarked) [Compound 45, N-(3-((8-((2-(2,6-Dioxopiperidin-3-yl)-1,3-dioxoisoindolin-5-yl)amino)octyl)amino)propoxy)-3,4-difluoro-2-((2-fluoro-4-iodophenyl)amino)benzamide]
MEK1/2 degradation (Western blot, words) [2]: significantly degraded both MEK1 and MEK2 proteins

O=C1CCC(N2C(=O)c3ccc(NCCOCCOCCOCCOCCNCCCONC(=O)c4ccc(F)c(F)c4Nc4ccc(I)cc4F)cc3C2=O)C(=O)N1 (centres unmarked) [Compound 49, N-((1-((2-(2,6-Dioxopiperidin-3-yl)-1,3-dioxoisoindolin-5-yl)amino)-3,6,9,12-tetraoxa-15-azaoctadecan-18-yl)oxy)-3,4-di-fluoro-2-((2-fluoro-4-iodophenyl)amino)benzamide]
GI50 [1]: 300 to 500 nM | MEK1/2 degradation (Western blot, words) [2]: significantly degraded both MEK1 and MEK2 proteins
